Kd data for 13 molecules are collected here from ChEMBL document CHEMBL4699579, “A Peptidyl Inhibitor that Blocks Calcineurin-NFAT Interaction and Prevents Acute Lung Injury” (J Med Chem, 2020).

The structures appear in SMILES notation. Non-standard residues stand in square brackets, D forms with d. Residues, ends and D or L forms follow the SMILES beside them. *: point of attachment. X5 = O=C(O)c1cc(NC(=S)*)ccc1-c1c2ccc(=O)cc-2oc2cc(O)ccc12; Benzoyl(2,3,4,5,6-F5) = O=C(c1c(F)c(F)c(F)c(F)c1F)*; Benzoyl(2,3-Cl2) = O=C(c1cccc(Cl)c1Cl)*; Tle = CC(C)(C)[C@H](N)C(=O)O; X4 = O=C(c1ccc(Br)c(Cl)c1)*; X6 = Cc1ccc(C(=O)*)c(F)c1F; AEEA = NCCOCCOCC(=O)O; Bz = O=C(c1ccccc1)*; βAla = NCCC(=O)O; For = O=C*

This assay can be described thus: Binding affinity to GST-tagged Calcineurin (unknown origin) incubated for 1 hr by fluorescence polarization assay. More on the design: species or system Homo sapiens. (Polarisation of emitted light reports the rotation of a fluorescent probe.)

As usually defined, the Kd is the free concentration of one partner at which half of the binding sites on the other are occupied at equilibrium, for simple one-to-one binding. With `CC[C@H](C)[C@H](NC(=O)[C@@H](NC(=O)c1cccc(Cl)c1Cl)C(C)(C)C)C(=O)N[C@H](C(=O)N[C@H](C(=O)N[C@H](C(=O)N[C@@H](Cc1ccc(O)cc1)C(=O)N[C@H](CCC(=O)O)C(=O)N[C@@H](Cc1ccc(F)cc1)C(=O)N[C@@H](Cc1c[nH]cn1)C(=O)NCCC(=O)N[C@@H](CCCCNC(=S)Nc1ccc(-c2c3ccc(=O)cc-3oc3cc(O)ccc23)c(C(=O)O)c1)C(N)=O)[C@@H](C)O)[C@@H](C)CC)C(C)(C)C`, the Kd was determined as 12 nM.

For `CC[C@H](C)[C@H](NC(=O)[C@@H](NC(=O)c1cccc(Cl)c1Cl)C(C)(C)C)C(=O)N[C@H](C(=O)N[C@H](C(=O)N[C@H](C(=O)N[C@@H](CCC(N)=O)C(=O)N[C@@H](Cc1c[nH]cn1)C(=O)N[C@H](CC(C)C)C(=O)N[C@@H](Cc1c[nH]cn1)C(=O)NCCC(=O)N[C@@H](CCCCNC(=S)Nc1ccc(-c2c3ccc(=O)cc-3oc3cc(O)ccc23)c(C(=O)O)c1)C(N)=O)[C@@H](C)O)[C@@H](C)CC)C(C)(C)C`, the Kd came to 4.7 nM.

As to `CC[C@H](C)[C@H](NC(=O)[C@@H](NC(=O)c1cccc(Cl)c1Cl)C(C)(C)C)C(=O)N[C@H](C(=O)N[C@H](C(=O)N[C@H](C(=O)N[C@@H](CCC(N)=O)C(=O)N[C@@H](Cc1c[nH]cn1)C(=O)N[C@H](CC(C)C)C(=O)N[C@@H](CO)C(=O)NCCC(=O)N[C@@H](CCCCNC(=S)Nc1ccc(-c2c3ccc(=O)cc-3oc3cc(O)ccc23)c(C(=O)O)c1)C(N)=O)[C@@H](C)O)[C@@H](C)CC)C(C)(C)C`, the Kd is 9.1 nM.

In the case of `CC[C@H](C)[C@H](NC(=O)[C@@H](NC=O)C(C)(C)C)C(=O)N[C@H](C(=O)N[C@H](C(=O)N[C@H](C(=O)NCC(=O)N1CCC[C@H]1C(=O)N[C@@H](Cc1c[nH]cn1)C(=O)N[C@@H](CCC(=O)O)C(=O)N[C@@H](CCC(=O)O)C(=O)N[C@@H](Cc1ccc(O)cc1)C(=O)N[C@@H](CCCCNC(=S)Nc1ccc(-c2c3ccc(=O)cc-3oc3cc(O)ccc23)c(C(=O)O)c1)C(N)=O)[C@@H](C)O)[C@@H](C)CC)C(C)(C)C` (For-[Tle]I[Tle]ITGPHEEYK(X5)-NH2), the dissociation constant (Kd) was > 5800 nM.

As to `CC[C@H](C)[C@H](NC(=O)[C@@H](NC(=O)c1cccc(Cl)c1Cl)C(C)(C)C)C(=O)N[C@H](C(=O)N[C@H](C(=O)N[C@H](C(=O)NCC(=O)N1CCC[C@H]1C(=O)N[C@@H](Cc1c[nH]cn1)C(=O)N[C@@H](CCC(=O)O)C(=O)N[C@@H](CCC(=O)O)C(=O)N[C@@H](Cc1ccc(O)cc1)C(=O)N[C@@H](CCCCNC(=S)Nc1ccc(-c2c3ccc(=O)cc-3oc3cc(O)ccc23)c(C(=O)O)c1)C(N)=O)[C@@H](C)O)[C@@H](C)CC)C(C)(C)C` ({Benzoyl(2,3-Cl2)}-[Tle]I[Tle]ITGPHEEYK(X5)-NH2), the Kd is 41 nM.

`CC[C@H](C)[C@H](NC(=O)[C@@H](NC(=O)c1ccc(C)c(F)c1F)C(C)(C)C)C(=O)N[C@H](C(=O)N[C@H](C(=O)N[C@H](C(=O)NCC(=O)N1CCC[C@H]1C(=O)N[C@@H](Cc1c[nH]cn1)C(=O)N[C@@H](CCC(=O)O)C(=O)N[C@@H](CCC(=O)O)C(=O)N[C@@H](Cc1ccc(O)cc1)C(=O)N[C@@H](CCCCNC(=S)Nc1ccc(-c2c3ccc(=O)cc-3oc3cc(O)ccc23)c(C(=O)O)c1)C(N)=O)[C@@H](C)O)[C@@H](C)CC)C(C)(C)C` (X6-[Tle]I[Tle]ITGPHEEYK(X5)-NH2): the Kd was determined as 74 nM.

Take `CC[C@H](C)[C@H](NC(=O)[C@@H](NC(=O)c1cccc(Cl)c1Cl)C(C)(C)C)C(=O)N[C@H](C(=O)N[C@H](C(=O)N[C@H](C(=O)N[C@@H](CC(=O)O)C(=O)N[C@@H](CCC(N)=O)C(=O)N[C@@H](Cc1ccc(O)cc1)C(=O)N[C@@H](CCCNC(=N)N)C(=O)NCCC(=O)N[C@@H](CCCCNC(=S)Nc1ccc(-c2c3ccc(=O)cc-3oc3cc(O)ccc23)c(C(=O)O)c1)C(N)=O)[C@@H](C)O)[C@@H](C)CC)C(C)(C)C` ({Benzoyl(2,3-Cl2)}-[Tle]I[Tle]ITDQYR[βAla]K(X5)-NH2): the equilibrium dissociation constant (Kd) came to 64 nM.

Regarding `CC[C@H](C)[C@H](NC(=O)[C@@H](NC(=O)c1ccc(Br)c(Cl)c1)C(C)(C)C)C(=O)N[C@H](C(=O)N[C@H](C(=O)N[C@H](C(=O)NCC(=O)N1CCC[C@H]1C(=O)N[C@@H](Cc1c[nH]cn1)C(=O)N[C@@H](CCC(=O)O)C(=O)N[C@@H](CCC(=O)O)C(=O)N[C@@H](Cc1ccc(O)cc1)C(=O)N[C@@H](CCCCNC(=S)Nc1ccc(-c2c3ccc(=O)cc-3oc3cc(O)ccc23)c(C(=O)O)c1)C(N)=O)[C@@H](C)O)[C@@H](C)CC)C(C)(C)C` (X4-[Tle]I[Tle]ITGPHEEYK(X5)-NH2), the dissociation constant (Kd) was 189 nM.

As to `CC[C@H](C)[C@H](NC(=O)[C@@H](NC(=O)c1cccc(Cl)c1Cl)C(C)(C)C)C(=O)N[C@H](C(=O)N[C@H](C(=O)N[C@H](C(=O)N[C@@H](CC(=O)O)C(=O)N[C@@H](CCC(N)=O)C(=O)N[C@@H](Cc1ccc(O)cc1)C(=O)N[C@H](CCCCN)C(=O)NCCC(=O)N[C@@H](CCCCNC(=S)Nc1ccc(-c2c3ccc(=O)cc-3oc3cc(O)ccc23)c(C(=O)O)c1)C(N)=O)[C@@H](C)O)[C@@H](C)CC)C(C)(C)C`, the equilibrium dissociation constant (Kd) came to 22 nM.

In the case of `CC[C@H](C)[C@H](NC(=O)[C@@H](NC(=O)c1cccc(Cl)c1Cl)C(C)(C)C)C(=O)N[C@H](C(=O)N[C@H](C(=O)N[C@H](C(=O)NCCOCCOCC(=O)N[C@@H](CCCCNC(=S)Nc1ccc(-c2c3ccc(=O)cc-3oc3cc(O)ccc23)c(C(=O)O)c1)C(N)=O)[C@@H](C)O)[C@@H](C)CC)C(C)(C)C` ({Benzoyl(2,3-Cl2)}-[Tle]I[Tle]IT[AEEA]K(X5)-NH2), the Kd came out at 700 nM.

For `CC[C@H](C)[C@H](NC(=O)[C@@H](NC(=O)c1ccccc1)C(C)(C)C)C(=O)N[C@H](C(=O)N[C@H](C(=O)N[C@H](C(=O)NCC(=O)N1CCC[C@H]1C(=O)N[C@@H](Cc1c[nH]cn1)C(=O)N[C@@H](CCC(=O)O)C(=O)N[C@@H](CCC(=O)O)C(=O)N[C@@H](Cc1ccc(O)cc1)C(=O)N[C@@H](CCCCNC(=S)Nc1ccc(-c2c3ccc(=O)cc-3oc3cc(O)ccc23)c(C(=O)O)c1)C(N)=O)[C@@H](C)O)[C@@H](C)CC)C(C)(C)C` (Bz-[Tle]I[Tle]ITGPHEEYK(X5)-NH2), the Kd turned out to be 224 nM.

Take `CC[C@H](C)[C@H](NC(=O)[C@@H](NC(C)=O)C(C)(C)C)C(=O)N[C@H](C(=O)N[C@H](C(=O)N[C@H](C(=O)NCC(=O)N1CCC[C@H]1C(=O)N[C@@H](Cc1c[nH]cn1)C(=O)N[C@@H](CCC(=O)O)C(=O)N[C@@H](CCC(=O)O)C(=O)N[C@@H](Cc1ccc(O)cc1)C(=O)N[C@@H](CCCCNC(=S)Nc1ccc(-c2c3ccc(=O)cc-3oc3cc(O)ccc23)c(C(=O)O)c1)C(N)=O)[C@@H](C)O)[C@@H](C)CC)C(C)(C)C` (Ac-[Tle]I[Tle]ITGPHEEYK(X5)-NH2): the dissociation constant (Kd) is > 5400 nM.

As to `CC[C@H](C)[C@H](NC(=O)[C@@H](NC(=O)c1c(F)c(F)c(F)c(F)c1F)C(C)(C)C)C(=O)N[C@H](C(=O)N[C@H](C(=O)N[C@H](C(=O)NCC(=O)N1CCC[C@H]1C(=O)N[C@@H](Cc1c[nH]cn1)C(=O)N[C@@H](CCC(=O)O)C(=O)N[C@@H](CCC(=O)O)C(=O)N[C@@H](Cc1ccc(O)cc1)C(=O)N[C@@H](CCCCNC(=S)Nc1ccc(-c2c3ccc(=O)cc-3oc3cc(O)ccc23)c(C(=O)O)c1)C(N)=O)[C@@H](C)O)[C@@H](C)CC)C(C)(C)C` ({Benzoyl(2,3,4,5,6-F5)}-[Tle]I[Tle]ITGPHEEYK(X5)-NH2), the dissociation constant Kd was found to be 77 nM.
